Results on 14 compounds are retold here after patent publication US7790733B2, “8-alkoxy or cycloalkoxy-4-methyl-3,4-dihydro-quinazolin-2-ylamines” (Hoffman-La Roche Inc., priority 2005, dated 2010).

For this assay, the target named is T1, recombinant human 5-HT5A receptor (Homo sapiens, UniProt P47898).
T1 construct: expressed in transfected cells; host or cells: Human Embryonic Kidney-EBNA (HEK-EBNA) cells, transient cDNA expression, membranes
T1 sequence (P47898 whole entry): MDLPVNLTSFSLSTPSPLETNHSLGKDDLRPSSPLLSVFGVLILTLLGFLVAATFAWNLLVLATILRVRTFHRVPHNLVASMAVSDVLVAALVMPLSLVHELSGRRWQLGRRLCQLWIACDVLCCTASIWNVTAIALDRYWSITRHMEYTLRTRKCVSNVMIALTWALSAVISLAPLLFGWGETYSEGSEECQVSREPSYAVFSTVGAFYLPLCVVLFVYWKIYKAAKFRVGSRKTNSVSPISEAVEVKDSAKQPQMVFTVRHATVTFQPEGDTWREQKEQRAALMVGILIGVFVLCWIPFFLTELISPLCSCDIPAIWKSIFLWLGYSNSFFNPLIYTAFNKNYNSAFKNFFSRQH
The experiment in a line: [3H]LSD radioligand binding assay, recombinant human 5-HT5A receptor in HEK-EBNA cell membranes. As to conditions: [3H]LSD approx. 1 nM; membranes from HEK-EBNA cells transiently expressing 5-HT5A; Ki from IC50 by Cheng-Prussoff equation. How it is done: A [^3H]LSD radioligand binding assay was used to determine the affinity of the compounds for the recombinant human 5-HT5A receptor, in membranes from transiently (cDNA) expressed 5-HT5A receptors in Human Embryonic Kidney-EBNA (HEK-EBNA) cells. Assay buffer consisted of Tris (50 mM) buffer containing 1 mM EGTA, 10 mM MgCl2 (pH 7.4) and 10 μM pargyline. The binding assay was carried out in 96-well-plates in the presence of [^3H]LSD (approximately 1 nM), approximately 2 μg/well of membrane protein, and 0.5 mg of Ysi-poly-1-lysine SPA beads in a final volume of 200 μl of buffer. Non-specific binding was defined using methiothepin 2 μM. Compounds were tested at 10 concentrations. All assays were conducted in duplicate and repeated at least two times. Assay plates were incubated for 120 min at room temperature before centrifugation. Bound ligand was determined using a Packard Topcount scintillation counter. IC50 values were calculated using a non-linear curve fitting program and Ki values calculated using the Cheng-Prussoff equation. The activity of representative compounds (≦0.05 μM) is described in the table below: […]
Broadly, the Ki is a measure of affinity in units of concentration, obtained from inhibition or displacement. On to `COc1cccc2c1N=C(N)NC2C` (centres unmarked) [Example 1, 8-Methoxy-4-methyl-3,4-dihydro-quinazolin-2-ylamine], for which the Ki was found to be 6.34 nM.

For the compound `CC(C)Oc1cccc2c1N=C(N)NC2C` (centres unmarked) [Example 2, 8-Isopropoxy-4-methyl-3,4-dihydro-quinazolin-2-ylamine], the Ki was 9.96 nM.

For `CCOc1cccc2c1N=C(NCC(F)F)NC2C` (centres unmarked) [Example 3, (2,2-Difluoro-ethyl)-(8-ethoxy-4-methyl-3,4-dihydro-quinazolin-2-yl)-amine], the inhibitory constant (Ki) is 14.1 nM.

Turning to `CC(C)Oc1cccc2c1N=C(NCC(F)F)NC2C` (centres unmarked) [Example 4, (2,2-Difluoro-ethyl)-(8-isopropoxy-4-methyl-3,4-dihydro-quinazolin-2-yl)-amine], the inhibitory constant (Ki) came to 23.2 nM.

Turning to `CNC1=Nc2c(OC(C)C)cccc2C(C)N1` (centres unmarked) [Example 5, (8-Isopropoxy-4-methyl-3,4-dihydro-quinazolin-2-yl)-methyl-amine], the Ki stood at 25.4 nM.

Take `COc1cccc2c1N=C(NCC(F)F)NC2C` (centres unmarked) [Example 6, (2,2-Difluoro-ethyl)-(8-methoxy-4-methyl-3,4-dihydro-quinazolin-2-yl)-amine]: the inhibition constant Ki came out at 28.2 nM.

In the case of `CCOc1cccc2c1N=C(NC)NC2C` (centres unmarked) [Example 7, (8-Ethoxy-4-methyl-3,4-dihydro-quinazolin-2-yl)-methyl-amine], the Ki worked out at 34.5 nM.

Take `CCOc1cccc2c1N=C(N)NC2C` (centres unmarked) [Example 8, 8-Ethoxy-4-methyl-3,4-dihydro-quinazolin-2-ylamine]: the Ki worked out at 37.2 nM.

As for `CNC1=Nc2c(OC)cccc2C(C)N1` (centres unmarked) [Example 9, (8-Methoxy-4-methyl-3,4-dihydro-quinazolin-2-yl)-methyl-amine], the Ki amounted to 38.4 nM.

On to `CNC1=Nc2c(OC3CCCC3)cccc2C(C)N1` (centres unmarked) [Example 16, (8-Cyclopentyloxy-4-methyl-3,4-dihydro-quinazolin-2-yl)-methyl-amine], for which the Ki stood at 16.2 nM.

For `CC1NC(NCC(F)F)=Nc2c(OC3CCCC3)cccc21` (centres unmarked) [Example 17, (8-Cyclopentyloxy-4-methyl-3,4-dihydro-quinazolin-2-yl)-(2,2-difluoro-ethyl)-amine], the inhibition constant Ki was found to be 22.4 nM.

Regarding `COc1cc(Cl)c(C)c2c1N=C(N)NC2C` (centres unmarked) [Example 18, 6-Chloro-8-methoxy-4,5-dimethyl-3,4-dihydro-quinazolin-2-ylamine], the inhibitory constant (Ki) amounted to 4.7 nM.

With `COc1cc(Cl)c(C)c2c1N=C(NC1CCC1)NC2C` (centres unmarked) [Example 19, (6-Chloro-8-methoxy-4,5-dimethyl-3,4-dihydro-quinazolin-2-yl)-cyclobutyl-amine], the Ki was 47.5 nM.

With `CNC1=Nc2c(OC)cc(Cl)c(C)c2C(C)N1` (centres unmarked) [Example 20, (6-Chloro-8-methoxy-4,5-dimethyl-3,4-dihydro-quinazolin-2-yl)-methyl-amine], the Ki was found to be 42.6 nM.
